Measured values from patent publication US20070218016A1, “Use of Aroma Substance Mixtures as Agents Against Bad Breath” (SYMRISE GMBH & CO. KG, priority 2004, published 2007).

Test system: sterile liquid medium inoculated with fresh morning saliva
Test: In vitro test for reduction of bad breath (inoculated medium smelled by a panel of testers)
Assay type: cell-based
Conditions: 0.05% added to inoculated samples, incubated at 37° C. for some days
Experimental: In Vitro Test for Reduction of Bad Breath
The test is based on the work of Goldberg and Rosenberg (Production of Oral Malodor in an in vitro System, S. Goldberg and M. Rosenberg, pp. 143-150, in: Bad Breath—A Multidisciplinary Approach, eds: D. van Steenberghe, M. Rosenberg, Leuven University Press, 1996) and was adapted for better reproducibility.
A sterile liquid medium inoculated with fresh morning saliva is incubated at 37° C. for some days and then smelled by a panel of testers.
An intensive, typical bad breath odour had formed. Non-inoculated controls have only a weak smell of the medium.
Triclosan® (5-chloro-2-(2,4-dichlorophenoxy)phenol) was added to inoculated samples in a concentration of 0.05% as a control for the tests.
By addition of in each case 0.01% of the mixtures E-1 to E-6 according to the invention (see Table 1) to inoculated samples, no smell—analogously to Triclosan®—was to be found after the incubation time. This value also corresponds to the minimum active concentration.
If 0.05% of a mixture according to the invention is added to the inoculated medium only one hour before the sensory evaluation, an unpleasant mixed smell of bad breath and a weak note of the mixture according to the invention is to be observed.

`Oc1cc(Cl)ccc1Oc1ccc(Cl)cc1Cl` [Triclosan, 5-chloro-2-(2,4-dichlorophenoxy)phenol] was tested, and the “smell after the incubation” value was “same weak smell of the medium as the non-inoculated samples”.
